According to the NIST ThermoML archive (doi:10.1016/j.jct.2017.05.001):

Test: wn = mass fraction of the nth substance listed
Conditions: Liquid; for mass density: Vibrating tube method

CN(C)CCO [2-(N,N-dimethylamino)ethanol] + O
mass density [kg/m3]
Conditions	w1 = 0.1005	w1 = 0.202	w1 = 0.3005	w1 = 0.3995
333.15 K, 130000 kPa	–	1018.6	1012.4	1005.5
333.15 K, 140000 kPa	1028.8	1021.9	1015.4	1008.7
353.15 K, 100 kPa	965.2	958.1	950.2	941.1
353.15 K, 500 kPa	965.3	958.1	950.3	941.2
353.15 K, 1000 kPa	965.6	958.4	950.6	941.4
353.15 K, 2000 kPa	966	958.8	951	941.9
353.15 K, 5000 kPa	967.3	960.1	952.4	943.3
353.15 K, 10000 kPa	969.5	962.4	954.7	945.8
353.15 K, 15000 kPa	971.6	964.5	956.9	948.1
353.15 K, 20000 kPa	973.8	966.7	959.1	950.5
353.15 K, 30000 kPa	978	971	963.4	954.9
353.15 K, 40000 kPa	982	975	967.5	959.2
353.15 K, 50000 kPa	986	978.9	971.6	963.3
353.15 K, 60000 kPa	989.9	982.7	975.6	967.5
353.15 K, 70000 kPa	993.6	986.6	979.3	971.2
353.15 K, 80000 kPa	997.4	990.1	983	975.1
353.15 K, 90000 kPa	1000.9	993.8	986.6	978.7
353.15 K, 100000 kPa	1004.6	997.3	990.1	982.4
353.15 K, 110000 kPa	1008.1	1000.7	993.6	985.9
353.15 K, 120000 kPa	1011.7	1004.1	997	989.3
353.15 K, 130000 kPa	1014.9	1007.5	1000.3	992.7
353.15 K, 140000 kPa	1018.3	1010.8	1003.5	996
373.15 K, 100 kPa	950.7	942.4	933.3	923.1
373.15 K, 500 kPa	950.9	942.7	933.6	923.4
373.15 K, 1000 kPa	951.2	942.9	933.9	923.6
373.15 K, 2000 kPa	951.7	943.4	934.4	924.2
373.15 K, 5000 kPa	953	944.8	935.9	925.8
373.15 K, 10000 kPa	955.4	947.2	938.4	928.4
373.15 K, 15000 kPa	957.7	949.5	940.8	931.1
373.15 K, 20000 kPa	959.9	951.8	943.2	933.6

viscosity [mPa·s]
Conditions	w1 = 0.1	w1 = 0.1005	w1 = 0.2	w1 = 0.202	w1 = 0.3	w1 = 0.3005	w1 = 0.3995	w1 = 0.4
353.15 K, 100 kPa, Concentric cylinders viscometry	0.475	–	0.618	–	0.809	–	–	1.044
353.15 K, 100 kPa, Falling or rolling sphere viscometry	–	0.4624	–	0.6055	–	0.8063	1.05	–
353.15 K, 5000 kPa, Falling or rolling sphere viscometry	–	0.4644	–	0.6064	–	0.812	1.059	–
353.15 K, 10000 kPa, Falling or rolling sphere viscometry	–	0.4671	–	0.6135	–	0.8213	1.074	–
353.15 K, 15000 kPa, Falling or rolling sphere viscometry	–	0.4699	–	0.6195	–	0.8321	1.09	–
353.15 K, 20000 kPa, Falling or rolling sphere viscometry	–	0.472	–	0.6229	–	0.8407	1.105	–
353.15 K, 25000 kPa, Falling or rolling sphere viscometry	–	0.4744	–	0.6275	–	0.8485	1.118	–
353.15 K, 30000 kPa, Falling or rolling sphere viscometry	–	0.4772	–	0.6338	–	0.856	1.135	–
353.15 K, 40000 kPa, Falling or rolling sphere viscometry	–	0.4824	–	0.6411	–	0.875	1.167	–
353.15 K, 60000 kPa, Falling or rolling sphere viscometry	–	0.491	–	0.659	–	0.9078	1.225	–
353.15 K, 80000 kPa, Falling or rolling sphere viscometry	–	0.4999	–	0.6779	–	0.9395	1.281	–
353.15 K, 100000 kPa, Falling or rolling sphere viscometry	–	0.5096	–	0.6942	–	0.9726	1.337	–
373.15 K, 5000 kPa, Falling or rolling sphere viscometry	–	0.359	–	0.4516	–	0.5788	0.7177	–
373.15 K, 10000 kPa, Falling or rolling sphere viscometry	–	0.3614	–	0.4543	–	0.5834	0.7267	–
373.15 K, 15000 kPa, Falling or rolling sphere viscometry	–	0.3638	–	0.4578	–	0.5895	0.7398	–
373.15 K, 20000 kPa, Falling or rolling sphere viscometry	–	0.3659	–	0.4624	–	0.5971	0.7525	–
373.15 K, 25000 kPa, Falling or rolling sphere viscometry	–	0.3691	–	0.4659	–	0.602	0.7633	–
